Laboratory results as given in ChEMBL document CHEMBL3351894, “Development and evaluation of ST-1829 based on 5-benzylidene-2-phenylthiazolones as promising agent for anti-leukotriene therapy” (Eur J Med Chem, 2015).
pIC50: −log10 of the molar value. Values after ≈ are worked out from the molar mass of the structure shown. Active and inactive are the calls of the source. No cut-off for these calls is given here.

How the values were obtained:
[1] = target: T1, Polyunsaturated fatty acid 5-lipoxygenase (Homo sapiens, UniProt P09917); test: Inhibition of 5-LO in human PMNL S100 extract using arachidonic acid as substrate incubated for 15 mins prior to substrate addition measured after 10 mins by HPLC analysis
T1 sequence (P09917 whole entry): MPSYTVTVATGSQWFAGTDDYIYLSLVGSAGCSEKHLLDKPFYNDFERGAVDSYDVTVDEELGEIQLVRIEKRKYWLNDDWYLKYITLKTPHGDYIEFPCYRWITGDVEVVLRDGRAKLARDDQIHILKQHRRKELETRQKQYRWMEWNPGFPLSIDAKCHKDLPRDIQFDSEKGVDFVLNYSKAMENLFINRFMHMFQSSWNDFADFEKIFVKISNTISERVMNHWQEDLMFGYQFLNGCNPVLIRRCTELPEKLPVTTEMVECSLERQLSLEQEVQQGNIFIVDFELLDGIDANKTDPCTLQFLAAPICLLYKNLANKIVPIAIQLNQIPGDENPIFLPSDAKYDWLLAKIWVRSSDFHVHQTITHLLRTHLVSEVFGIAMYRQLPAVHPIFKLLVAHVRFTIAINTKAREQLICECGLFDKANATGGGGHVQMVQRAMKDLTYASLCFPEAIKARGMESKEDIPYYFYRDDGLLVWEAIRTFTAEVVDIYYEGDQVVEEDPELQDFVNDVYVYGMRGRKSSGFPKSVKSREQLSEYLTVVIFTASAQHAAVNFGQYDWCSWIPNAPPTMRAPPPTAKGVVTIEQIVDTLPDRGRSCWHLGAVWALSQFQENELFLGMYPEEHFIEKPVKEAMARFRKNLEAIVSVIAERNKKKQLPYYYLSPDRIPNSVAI

[2] = target: T1, Polyunsaturated fatty acid 5-lipoxygenase; test: Inhibition of 5-LO in human PMNL using arachidonic acid as substrate assessed as product formation incubated for 15 mins prior to substrate addition measured after 10 mins by HPLC analysis
[3] = Solubility of the compound in DMSO at RT; type: physicochemical
[4] = Solubility of the compound in PBS at pH 7.4 at RT; type: physicochemical
[5] = target: T2, Polyunsaturated fatty acid lipoxygenase ALOX12 (Homo sapiens, UniProt P18054); test: Inhibition of 12-LO (unknown origin)
T2 sequence (P18054 whole entry): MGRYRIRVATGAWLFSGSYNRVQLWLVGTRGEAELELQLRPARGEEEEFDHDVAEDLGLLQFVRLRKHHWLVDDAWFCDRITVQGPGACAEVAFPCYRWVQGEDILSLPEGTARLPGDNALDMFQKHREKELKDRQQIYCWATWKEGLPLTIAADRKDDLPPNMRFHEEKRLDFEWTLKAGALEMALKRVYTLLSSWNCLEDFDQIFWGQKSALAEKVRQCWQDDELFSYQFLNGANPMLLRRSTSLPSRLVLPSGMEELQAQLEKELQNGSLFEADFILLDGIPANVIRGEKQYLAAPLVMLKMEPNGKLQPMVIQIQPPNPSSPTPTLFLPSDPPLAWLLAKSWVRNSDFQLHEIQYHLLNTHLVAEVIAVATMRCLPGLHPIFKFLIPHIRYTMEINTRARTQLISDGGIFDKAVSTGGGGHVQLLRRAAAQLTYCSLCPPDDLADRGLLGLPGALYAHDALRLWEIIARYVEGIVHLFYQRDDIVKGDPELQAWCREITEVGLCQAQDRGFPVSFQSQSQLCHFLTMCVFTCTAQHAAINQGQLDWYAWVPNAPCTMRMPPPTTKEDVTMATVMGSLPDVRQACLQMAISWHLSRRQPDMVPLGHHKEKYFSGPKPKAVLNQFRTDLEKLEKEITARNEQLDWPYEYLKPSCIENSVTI

[6] = target: T3, Polyunsaturated fatty acid lipoxygenase ALOX15 (Homo sapiens, UniProt P16050); test: Inhibition of 15-LO1 (unknown origin)
T3 sequence (P16050 whole entry): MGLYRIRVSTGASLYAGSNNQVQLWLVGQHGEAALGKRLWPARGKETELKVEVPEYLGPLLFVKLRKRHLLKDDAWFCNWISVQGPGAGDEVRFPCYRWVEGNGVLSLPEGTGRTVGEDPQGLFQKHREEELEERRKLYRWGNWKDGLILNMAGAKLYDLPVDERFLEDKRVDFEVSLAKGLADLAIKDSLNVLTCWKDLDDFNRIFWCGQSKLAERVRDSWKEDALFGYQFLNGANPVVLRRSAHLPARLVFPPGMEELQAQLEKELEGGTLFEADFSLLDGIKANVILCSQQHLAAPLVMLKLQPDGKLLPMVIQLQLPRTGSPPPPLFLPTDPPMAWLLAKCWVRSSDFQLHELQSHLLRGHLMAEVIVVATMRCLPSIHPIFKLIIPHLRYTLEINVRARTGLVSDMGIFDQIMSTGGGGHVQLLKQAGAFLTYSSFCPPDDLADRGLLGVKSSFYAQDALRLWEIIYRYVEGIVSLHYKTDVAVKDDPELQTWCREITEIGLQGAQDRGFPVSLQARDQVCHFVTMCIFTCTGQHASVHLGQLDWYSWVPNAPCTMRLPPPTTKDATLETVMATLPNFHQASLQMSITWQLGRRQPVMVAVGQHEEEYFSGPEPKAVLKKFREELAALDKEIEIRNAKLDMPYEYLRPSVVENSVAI

[7] = target: T4, Polyunsaturated fatty acid 5-lipoxygenase (Homo sapiens) (UniProt P09917); test: Inhibition of 5-LO in human PMNL using arachidonic acid as substrate assessed as product formation at 1 to 10 uM incubated for 15 mins prior to substrate addition measured after 10 mins by HPLC analysis in presence of 10% fetal calf serum
T4 sequence (whole entry): T1 sequence (P09917 whole entry)

[8] = Cytotoxicity against human U937 cells assessed as cell viability after 48 hrs by WST-1 assay; type: cell-based; details: U-937, 48 h
[9] = Cytotoxicity against human U937 cells at 30 uM after 48 hrs by LDH assay; type: cell-based; details: u-937, 48 h

pIC50 [1]: 7.52
pIC50 [2]: 6.85
solubility [3]: 100 mM (≈ 33.2 mg/mL)
solubility [4]: 0.08 mM (≈ 0.0265 mg/mL)
pIC50 [5]: < 5.00
pIC50 [6]: < 5.00
inhibition [7]: inactive
Compound: COc1ccc(Cc2sc(-c3ccc(Cl)cc3)nc2O)cc1
pIC50 [8]: < 4.52
Activity [9]: 4.09%
